Common to all, as to settings: JH1 kinase domain, ADP-Glo
Assay [1] addresses T1, human TYK2 kinase domain (JH1) (Homo sapiens, UniProt P29597).
T1 construct: recombinantly generated catalytic kinase (also known as JH1) domain of human JAK1, JAK2, JAK3 and TYK2
T1 sequence (P29597 897-1176 limits assumed): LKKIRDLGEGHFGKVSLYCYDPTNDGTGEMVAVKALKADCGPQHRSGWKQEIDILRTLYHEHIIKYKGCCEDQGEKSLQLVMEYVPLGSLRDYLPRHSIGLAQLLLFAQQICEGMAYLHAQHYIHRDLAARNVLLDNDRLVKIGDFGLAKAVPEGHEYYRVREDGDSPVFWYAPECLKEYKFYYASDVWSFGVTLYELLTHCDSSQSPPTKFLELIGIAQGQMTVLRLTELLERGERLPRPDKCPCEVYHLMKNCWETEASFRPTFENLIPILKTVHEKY
As to the kind of experiment: JH1 biochemical assay for TYK2 (ADP-Glo kinase assay, recombinant JH1 catalytic domain, JAK3-974 peptide, 10 μM ATP). The method in brief:
(§1)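 Enzyme levels: JAK1 4 nM, JAK2 0.2 nM, JAK3 0.3 nM, TYK2 2 nM. Peptide substrate at 50 μM. Reactions ran 100 minutes; ADP formed was converted to luciferase luminescence after ATP depletion. Compounds tested from 10 μM or 1 μM top, 11-point 3-fold dilutions; IC50 from 4-parameter logistic fit of normalized percent activity.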

In assay [2] the target is T2, human JAK1 kinase domain (JH1) (Homo sapiens, UniProt P23458).
T2 construct: recombinantly generated catalytic kinase (also known as JH1) domain of human JAK1, JAK2, JAK3 and TYK2
T2 sequence (P23458 875-1153 limits assumed): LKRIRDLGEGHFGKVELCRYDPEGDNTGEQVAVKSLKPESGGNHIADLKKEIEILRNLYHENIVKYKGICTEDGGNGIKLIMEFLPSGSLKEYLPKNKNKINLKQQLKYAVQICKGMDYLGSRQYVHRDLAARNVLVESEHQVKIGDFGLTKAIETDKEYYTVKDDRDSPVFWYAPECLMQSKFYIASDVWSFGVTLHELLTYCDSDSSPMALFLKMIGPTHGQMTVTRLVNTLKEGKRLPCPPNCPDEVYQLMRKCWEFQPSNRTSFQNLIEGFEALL
As to the kind of experiment: JH1 biochemical assay for JAK1 (ADP-Glo kinase assay, recombinant JH1 catalytic domain, JAK3-342 peptide, 35 μM ATP). The method in brief: as §1

The target in assay [3] is T3, human JAK2 kinase domain (JH1) (Homo sapiens, UniProt O60674).
T3 construct: recombinantly generated catalytic kinase (also known as JH1) domain of human JAK1, JAK2, JAK3 and TYK2
T3 sequence (O60674 849-1124 limits assumed): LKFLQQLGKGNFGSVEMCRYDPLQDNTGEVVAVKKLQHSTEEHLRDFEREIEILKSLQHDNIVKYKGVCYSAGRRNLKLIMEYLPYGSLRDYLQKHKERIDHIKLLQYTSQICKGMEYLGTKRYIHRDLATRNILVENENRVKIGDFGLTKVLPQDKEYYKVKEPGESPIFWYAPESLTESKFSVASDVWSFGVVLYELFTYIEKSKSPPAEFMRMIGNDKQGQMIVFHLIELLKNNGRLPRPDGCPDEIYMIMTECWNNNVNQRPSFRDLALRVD
The assay is described as follows: JH1 biochemical assay for JAK2 (ADP-Glo kinase assay, recombinant JH1 catalytic domain, JAK3-974 peptide, 15 μM ATP). The method in brief:
as §1

In assay [4] the target is T4, human JAK3 kinase domain (JH1) (Homo sapiens, UniProt P52333).
T4 construct: recombinantly generated catalytic kinase (also known as JH1) domain of human JAK1, JAK2, JAK3 and TYK2
T4 sequence (P52333 822-1111 limits assumed): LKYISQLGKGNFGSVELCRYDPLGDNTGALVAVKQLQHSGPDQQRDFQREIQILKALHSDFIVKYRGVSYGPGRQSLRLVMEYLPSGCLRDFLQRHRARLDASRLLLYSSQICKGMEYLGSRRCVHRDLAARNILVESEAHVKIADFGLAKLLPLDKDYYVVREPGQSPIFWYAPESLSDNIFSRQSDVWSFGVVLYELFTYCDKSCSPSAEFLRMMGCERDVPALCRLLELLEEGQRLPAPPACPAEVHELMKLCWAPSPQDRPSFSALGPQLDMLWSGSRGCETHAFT
As to the kind of experiment: JH1 biochemical assay for JAK3 (ADP-Glo kinase assay, recombinant JH1 catalytic domain, JAK3-974 peptide, 4 μM ATP). Summed up: as §1

Molecules are shown by their SMILES. Counter-ions that a name gives are not always drawn. A value given as a limit tells only on which side of the number the result lay.

On to `C[C@@H]1CN(c2ccnn3cc(-c4cnc5n4CCCC5)cc23)C(=O)[C@]1(C#N)C1CC1` [Example 100, (3R,4S)-3-cyclopropyl-4-methyl-2-oxo-1-(6-(5,6,7,8-tetrahydroimidazo[1,2-a]pyridin-3-yl)pyrrolo[1,2-b]pyridazin-4-yl)pyrrolidine-3-carbonitrile trifluoroacetate], for which the IC50 in assay [1] fell in the range of 50 to 100 nM; in assay [2], 1000 to 5000 nM; in assay [3], 1000 to 5000 nM; in assay [4] it was 1000 to 5000 nM.
Turning to `C[C@@H]1CN(c2ccnn3cc(-c4nnc5n4CCCC5)cc23)C(=O)[C@]1(C#N)C1CC1` [Example 105, (3R,4S)-3-cyclopropyl-4-methyl-2-oxo-1-(6-(5,6,7,8-tetrahydro-[1,2,4]triazolo[4,3-a]pyridin-3-yl)pyrrolo[1,2-b]pyridazin-4-yl)pyrrolidine-3-carbonitrile trifluoroacetate], the IC50 in assay [1] was over 100 nM; in assay [2] it was over 10000 nM; in assay [3], 1000 to 5000 nM; in assay [4] it was 5000 to 10000 nM.
As to `C[C@@H]1CN(c2ccnn3cc(-c4cc(C(F)(F)F)nn4C)cc23)C(=O)[C@]1(C#N)C1CC1` [Example 107, (3R,4S)-3-cyclopropyl-4-methyl-1-(6-(1-methyl-3-(trifluoromethyl)-1H-pyrazol-5-yl)pyrrolo[1,2-b]pyridazin-4-yl)-2-oxopyrrolidine-3-carbonitrile trifluoroacetate], the IC50 lay within 20 to 50 nM in assay [1], 1000 to 5000 nM in assay [2], 1000 to 5000 nM in assay [3] and 1000 to 5000 nM in assay [4].
For `C[C@@H]1CN(c2ccnn3cc(-c4nc5ccccn5n4)cc23)C(=O)[C@]1(C#N)C1CC1` [Example 108, (3R,4S)-1-(6-([1,2,4]triazolo[1,5-a]pyridin-2-yl)pyrrolo[1,2-b]pyridazin-4-yl)-3-cyclopropyl-4-methyl-2-oxopyrrolidine-3-carbonitrile trifluoroacetate], the half-inhibitory concentration (IC50) was 50 to 100 nM in assay [1], 1000 to 5000 nM in assay [2], over 10000 nM in assay [3] and 1000 to 5000 nM in assay [4].
Turning to `Cc1ccc2nc(-c3cc4c(N5C[C@@H](C)[C@@](C#N)(C6CC6)C5=O)ccnn4c3)nn2c1` [Example 109, (3R,4S)-3-cyclopropyl-4-methyl-1-(6-(6-methyl-[1,2,4]triazolo[1,5-a]pyridin-2-yl)pyrrolo[1,2-b]pyridazin-4-yl)-2-oxopyrrolidine-3-carbonitrile trifluoroacetate], the IC50 was in the range of 50 to 100 nM in assay [1], 1000 to 5000 nM in assay [2], 5000 to 10000 nM in assay [3] and 1000 to 5000 nM in assay [4].
As for `Cc1csc(-c2cc3c(N4C[C@@H](C)[C@@](C#N)(C5CC5)C4=O)ccnn3c2)n1` [Example 113, (3R,4S)-3-cyclopropyl-4-methyl-1-(6-(4-methylthiazol-2-yl)pyrrolo[1,2-b]pyridazin-4-yl)-2-oxopyrrolidine-3-carbonitrile trifluoroacetate], the IC50 in assay [1] lay in the range of 20 to 50 nM; in assay [2], 100 to 1000 nM; in assay [3], 1000 to 5000 nM; in assay [4] it was 100 to 1000 nM.
In the case of `C[C@@H]1CN(c2ccnn3cc(-c4nc(C#N)cs4)cc23)C(=O)[C@]1(C#N)C1CC1` [Example 114, 2-(4-((3R,4S)-3-cyano-3-cyclopropyl-4-methyl-2-oxopyrrolidin-1-yl)pyrrolo[1,2-b]pyridazin-6-yl)thiazole-4-carbonitrile trifluoroacetate], the IC50 in assay [1] is 20 to 50 nM; in assay [2], over 10000 nM; in assay [3], over 10000 nM; in assay [4] it was 1000 to 5000 nM.
In the case of `C[C@@H]1CN(c2ccnn3cc(-c4ncn(C)n4)cc23)C(=O)[C@]1(C#N)C1CC1` [Example 115, (3R,4S)-3-cyclopropyl-4-methyl-1-(6-(1-methyl-1H-1,2,4-triazol-3-yl)pyrrolo[1,2-b]pyridazin-4-yl)-2-oxopyrrolidine-3-carbonitrile trifluoroacetate], the IC50 in assay [1] is over 100 nM; in assay [2] it was over 10000 nM; in assay [3], over 10000 nM; in assay [4], 5000 to 10000 nM.
Turning to `C[C@@H]1CN(c2ccnn3cc(-c4cnc5cnccn45)cc23)C(=O)[C@]1(C#N)C1CC1` [Example 116, (3R,4S)-3-cyclopropyl-1-(6-(imidazo[1,2-a]pyrazin-3-yl)pyrrolo[1,2-b]pyridazin-4-yl)-4-methyl-2-oxopyrrolidine-3-carbonitrile trifluoroacetate], the IC50 in assay [1] was 20 to 50 nM; in assay [2], 100 to 1000 nM; in assay [3] it was 1000 to 5000 nM; in assay [4], 100 to 1000 nM.
On to `C[C@@H]1CN(c2ccnn3cc(-c4ncc(C#N)s4)cc23)C(=O)[C@]1(C#N)C1CC1` [Example 117, 2-(4-((3R,4S)-3-cyano-3-cyclopropyl-4-methyl-2-oxopyrrolidin-1-yl)pyrrolo[1,2-b]pyridazin-6-yl)thiazole-5-carbonitrile trifluoroacetate], for which the 50% inhibitory concentration (IC50) lay in the range of 20 to 50 nM in assay [1], 1000 to 5000 nM in assay [2], 1000 to 5000 nM in assay [3] and 1000 to 5000 nM in assay [4].
Consider `Cc1nc(-c2cc3c(N4C[C@@H](C)[C@@](C#N)(C5CC5)C4=O)ccnn3c2)ccc1C#N` [Example 119, 6-(4-((3R,4S)-3-cyano-3-cyclopropyl-4-methyl-2-oxopyrrolidin-1-yl)pyrrolo[1,2-b]pyridazin-6-yl)-2-methylnicotinonitrile trifluoroacetate], for which the IC50 in assay [1] lay in the range of 20 to 50 nM; in assay [2], 1000 to 5000 nM; in assay [3], 1000 to 5000 nM; in assay [4], 100 to 1000 nM.
Take `C[C@@H]1CN(c2ccnn3cc(-c4nccc(C(F)(F)F)n4)cc23)C(=O)[C@]1(C#N)C1CC1` [Example 120, (3R,4S)-3-cyclopropyl-4-methyl-2-oxo-1-(6-(4-(trifluoromethyl)pyrimidin-2-yl)pyrrolo[1,2-b]pyridazin-4-yl)pyrrolidine-3-carbonitrile trifluoroacetate]: the 50% inhibitory concentration (IC50) in assay [1] is over 100 nM; in assay [2] it was 5000 to 10000 nM; in assay [3], over 10000 nM; in assay [4], 1000 to 5000 nM.
With `C[C@@H]1CN(c2ccnn3cc(-c4cc(C(F)(F)F)ncn4)cc23)C(=O)[C@]1(C#N)C1CC1` [Example 121, (3R,4S)-3-cyclopropyl-4-methyl-2-oxo-1-(6-(6-(trifluoromethyl)pyrimidin-4-yl)pyrrolo[1,2-b]pyridazin-4-yl)pyrrolidine-3-carbonitrile trifluoroacetate], the IC50 is over 100 nM in assay [1], 1000 to 5000 nM in assay [2], 5000 to 10000 nM in assay [3] and 1000 to 5000 nM in assay [4].
Take `COc1ccnc(-c2cc3c(N4C[C@@H](C)[C@@](C#N)(C5CC5)C4=O)ccnn3c2)n1` [Example 122, (3R,4S)-3-cyclopropyl-1-(6-(4-methoxypyrimidin-2-yl)pyrrolo[1,2-b]pyridazin-4-yl)-4-methyl-2-oxopyrrolidine-3-carbonitrile trifluoroacetate]: the IC50 is over 100 nM in assay [1], 5000 to 10000 nM in assay [2], over 10000 nM in assay [3] and over 10000 nM in assay [4].
For `C[C@@H]1CN(c2ccnn3cc(-c4nccn5ccnc45)cc23)C(=O)[C@]1(C#N)C1CC1` [Example 123, (3R,4S)-3-cyclopropyl-1-(6-(imidazo[1,2-a]pyrazin-8-yl)pyrrolo[1,2-b]pyridazin-4-yl)-4-methyl-2-oxopyrrolidine-3-carbonitrile trifluoroacetate], the IC50 was over 100 nM in assay [1], over 10000 nM in assay [2], over 10000 nM in assay [3] and over 10000 nM in assay [4].
With `C[C@@H]1CN(c2ccnn3cc(-c4cccc(CC#N)n4)cc23)C(=O)[C@]1(C#N)C1CC1` [Example 125, (3R,4S)-1-(6-(6-(cyanomethyl)pyridin-2-yl)pyrrolo[1,2-b]pyridazin-4-yl)-3-cyclopropyl-4-methyl-2-oxopyrrolidine-3-carbonitrile trifluoroacetate], the IC50 in assay [1] fell in the range of 20 to 50 nM; in assay [2], 100 to 1000 nM; in assay [3], 100 to 1000 nM; in assay [4] it was 100 to 1000 nM.
With `COc1cncc(-c2cc3c(N4C[C@@H](C)[C@@](C#N)(C5CC5)C4=O)ccnn3c2)n1` [Example 126, (3R,4S)-3-cyclopropyl-1-(6-(6-methoxypyrazin-2-yl)pyrrolo[1,2-b]pyridazin-4-yl)-4-methyl-2-oxopyrrolidine-3-carbonitrile trifluoroacetate], the IC50 in assay [1] was 20 to 50 nM; in assay [2], 100 to 1000 nM; in assay [3] it was 100 to 1000 nM; in assay [4] it was 100 to 1000 nM.
As for `C[C@@H]1CN(c2ccnn3cc(-c4nccc(O)c4C#N)cc23)C(=O)[C@]1(C#N)C1CC1` [Example 129, 2-(4-((3R,4S)-3-cyano-3-cyclopropyl-4-methyl-2-oxopyrrolidin-1-yl)pyrrolo[1,2-b]pyridazin-6-yl)-4-hydroxynicotinonitrile trifluoroacetate], the IC50 in assay [1] was over 100 nM; in assay [2] it was over 10000 nM; in assay [3], over 10000 nM; in assay [4], over 10000 nM.

These data come from patent US20260297085A1, “1 H-PYRROLO[2,3-B]PYRIDIN-4-YL]-2-OXOPYRROLIDINE-3-CARBONITRILE DERIVATIVES AS TYROSINE KINASE 2 (TYK2) INHIBITORS FOR THE TREATMENT OF INFLAMMATORY DISEASES” (BIOGEN MA INC., priority 2023, published 2026).
